Patent US12357636B2 (Urovant Sciences GmbH, priority 2018, dated 2025)

Test: PK in renal impairment, single dose 100 mg
Assay type: in vivo, human
Settings: for CL/F / Fe[urine] 48 hr / AUC0-inf: single 100 mg
[1] = healthy matched control subjects

From the text: The relationship between clearance and renal function was modeled using linear regression.

## O=C(Nc1ccc(C[C@@H]2CC[C@H]([C@H](O)c3ccccc3)N2)cc1)[C@@H]1CCc2nccc(=O)n21 [Vibegron, (6S)—N-[4-[[(2S,5R)-5-[(R)-hydroxy(phenyl)methyl]pyrrolidin-2-yl]methyl]phenyl]-4-oxo-7,8-dihydro-6H-pyrrolo[1,2-a]pyrimidine-6-carboxamide]
In vivo
  mean increase in AUC, moderate renal impairment vs normal renal function: 1.6 fold
Mild renal impairment
  AUC0-inf higher compared to healthy matched controls: 49%
  CLR reduced compared to healthy matched controls: 39%
  Cmax higher compared to healthy matched controls: 96%
  AUC0-inf: 2290 ng·h/mL
  CL/F: 43.6 L/h
  Fe[urine] 48 hr: 8.5%
Moderate renal impairment
  AUC0-inf higher compared to healthy matched controls: 106%
  CLR reduced compared to healthy matched controls: 65%
  Cmax higher compared to healthy matched controls: 68%
  CL/F: 31.5 L/h
  Fe[urine] 48 hr: 5.5%
Severe renal impairment
  AUC0-inf higher compared to healthy matched controls: 83%
  CLR reduced compared to healthy matched controls: 82%
  Cmax higher compared to healthy matched controls: 42%
  AUC0-inf: 2820 ng·h/mL
  CL/F: 35.5 L/h
  Fe[urine] 48 hr: 2.1%
[1]
  CL/F: 64.9 L/h
  Fe[urine] 48 hr: 7.9%
Slope of linear regression
  CL/F increase per one mL/min/1.73 m2 increase in eGFR: ~0.8%
